Source: patent US9107415B2, “2-(substituted-phenyl)-cyclopentane-1,3-dione compounds, and derivatives thereof” (Syngenta Limited, priority 2011, dated 2015)

Assays:
Format in all cases: in vivo
[1] = test system: Alopecurus myosuroides (ALOMY); test: Biological Example 1 glasshouse screen, post-emergence herbicidal activity; conditions: 312 h, application rate 250 g/ha, evaluated after 13 days, read-out: ALOMY percentage phytotoxicity
Method: (§1) Seeds of a variety of test species were sown in standard soil in pots. After cultivation for one day (pre-emergence) or after 8 days cultivation (post-emergence) under controlled conditions in a glasshouse (at 24/16°C., day/night; 14 hours light; 65% humidity), the plants were sprayed with an aqueous spray solution derived from the formulation of the “technical”(i.e. unformulated) active ingredient in acetone/water (50:50) solution containing 0.5% Tween 20 (polyoxyethylene sorbitan monolaurate, CAS Registry Number 9005-64-5). The test plants were then grown in a glasshouse under controlled conditions in a glasshouse (at 24/16°C., day/night; 14 hours light; 65% humidity) and watered twice daily. After 13 days for pre- or post-emergence, the test was evaluated visually, and an assessed percentage phytotoxicity score given for each herbicidal application on each plant/weed species (with 100%=total damage to plant; 0%=no damage to plant).
(§2) Test plants: Alopecurus myosuroides (ALOMY), Setaria faberi (SETFA), Echinochloa crus-galli (ECHCG), Solanum nigrum (SOLNI), Amaranthus retroflexus (AMARE) and Ipomoea hederacea (IPOHE). ALOMY, SETFA and ECHCG are grassy monocotyledonous weeds. SOLNI, AMARE and IPOHE are dicotyledonous (broadleaved) weeds.
(§3) Test plants: Lolium perenne (LOLPE), Alopecurus myosuroides (ALOMY), Echinochloa crus-galli (ECHCG), and Avena fatua (AVEFA). All four of these are grassy monocotyledonous weeds.

[2] = test system: Echinochloa crus-galli (ECHCG); test: as above; conditions: 312 h, application rate 250 g/ha, evaluated after 13 days, read-out: ECHCG percentage phytotoxicity
Method: as §1, §2, §3

Avena fatua (AVEFA) [3] = test: as above; conditions: 312 h, application rate 250 g/ha, evaluated after 13 days, read-out: AVEFA percentage phytotoxicity
Method: as §1, §3

Lolium perenne (LOLPE) = test: as above; conditions: 312 h, application rate 250 g/ha, evaluated after 13 days, read-out: LOLPE percentage phytotoxicity
Method: as §1, §3

[4] = test system: Alopecurus myosuroides (ALOMY); test: Biological Example 4A (previously-formulated compounds) post-emergence herbicidal activity on grassy weeds; conditions: 14 DAA, EC formulation, mean of two
Method: (§4) Seeds of a variety of test species are sown in standard soil in pots. After cultivation for 14 days under controlled conditions in a glasshouse (at 22/16°C., day/night; 16 hours light; 65% humidity), the plants are sprayed with the test compounds. The test plants are then grown on under controlled conditions in the glasshouse (at 22/16°C., day/night; 16 hours light; 65% humidity) and are watered twice daily. After 14 days the test is evaluated visually (100%=total damage to plant; 0%=no damage to plant). Post-emergence herbicidal activity (phytotoxicity) data, on certain grassy monocotyledonous weeds and cereal crops in a glasshouse, are measured 14 days after application of the herbicide (14 DAA), inter alia for post-emergence application rates of 30 or 60 g/ha of the test herbicide, with or without 50 g/ha of cloquintocet-mexyl safener applied at substantially the same time as the herbicide.
(§5) Herbicidal activity (phytotoxicity) is evaluated visually, and an assessed percentage phytotoxicity score is given for each herbicidal application on each plant species (with 100%=total damage to plant; 0%=no damage to plant). Two repetitions are made for each experiment and the mean herbicidal activity (phytotoxicity) data is reported.
(§6) Biological Example 4A is used on previously-formulated compounds, typically compounds previously formulated as an emulsifiable concentrates (EC), wherein the EC contains the herbicidal compound under test dissolved in one or more organic solvents, and wherein the EC also contains one or more surfactants or emulsifiers. In the test method, the EC containing the herbicide (plus a cloquintocet-mexyl formulation if this is also present) is generally diluted with water to form an emulsion, and the resulting emulsion is sprayed onto the emerged weed and/or crop plants.
(§7) For the testing of Compounds A-5 and A-6, each of these compounds was separately formulated into an emulsifiable concentrate containing 10% w/w of the herbicidal compound, 9% w/w of castor oil ethoxylate (an emulsifier, present as Emulsogen™EL360), 6% w/w of calcium dodecylbenzenesulfonate (linear) (an emulsifier, present as Nansa™EVM 63B), 3% w/w of tristyrylphenol ethoxylate having 16 moles of ethoxylation per mole of molecule (an emulsifier, present as Soprophor™BSU), 10% w/w of benzyl benzoate (as solvent), 20% w/w of 1-methyl-2-pyrrolidone (as solvent), and the remainder of N-octyl-2-pyrrolidone (as solvent). The solvents and surfactants/emulsifiers were first mixed together, to form a “blank” EC, and the herbicidal compound was then added to and dissolved in this solvent and emulsifier mixture to prepare the emulsifiable concentrate, to give an EC formulation/composition containing approximately 100 g/L of active herbicidal compound.
(§8) In the tests of Compounds A-5 and A-6, the cloquintocet-mexyl was pre-formulated as a formulation/composition containing 10% w/w cloquintocet-mexyl, 6% w/w Emulsogen™ EL360 (as emulsifier), 4% w/w Nansa™EVM 63B (as wetting agent), 1% w/w Drapex™39 (epoxidised soybean oil), 20% w/w 1-methyl-2-pyrrolidone (as solvent), and the remainder as Solvesso™200ND (a mixture of heavy aromatic hydrocarbons, as a solvent).
(§9) Test plants: Avena fatua (AVEFA), Lolium multiflorum (LOLMU), Setaria viridis (SETVI), Poa annua (POAAN), Alopecurus myosuroides (ALOMY). All five of these are grassy monocotyledonous weeds.

Avena fatua (AVEFA) [5] = test: as above; conditions: 14 DAA, EC formulation, mean of two
Method: as §4, §5, §6, §7, §8, §9

[6] = test system: Lolium multiflorum (LOLMU); test: as above; conditions: 14 DAA, EC formulation, mean of two
Method: as §4, §5, §6, §7, §8, §9

Poa annua (POAAN) = test: as above; conditions: 14 DAA, EC formulation, mean of two
Method: as §4, §5, §6, §7, §8, §9

Setaria viridis (SETVI) = test: as above; conditions: 14 DAA, EC formulation, mean of two
Method: as §4, §5, §6, §7, §8, §9

[7] = test system: Spring Barley “Harrington”; test: Biological Example 4A post-emergence phytotoxicity on cereal crops; conditions: 14 DAA, EC formulation, mean of two
Method: as §4, §5, §6, §7, §8

Spring Wheat “Teal” = test: as above; conditions: 14 DAA, EC formulation, mean of two
Method: as §4, §5, §6, §7, §8

Winter Barley “Suzuka” = test: as above; conditions: 14 DAA, EC formulation, mean of two
Method: as §4, §5, §6, §7, §8

Winter Wheat “Hereward” = test: as above; conditions: 14 DAA, EC formulation, mean of two
Method: as §4, §5, §6, §7, §8

[8] = 30 g/ha, cloquintocet-mexyl 0 g/ha
[9] = 30 g/ha, cloquintocet-mexyl 50 g/ha
[10] = 60 g/ha, cloquintocet-mexyl 0 g/ha
[11] = 60 g/ha, cloquintocet-mexyl 50 g/ha

CC#Cc1cc(C)c(C2=C(O)C[C@H](Cc3ccccn3)C2=O)c(C)c1 [Compound A-5]
pest or weed control at 250 g/ha [1]: 80%
pest or weed control at 250 g/ha [2]: 90%
pest or weed control at 250 g/ha (Avena fatua (AVEFA) [3]): 90%
pest or weed control at 250 g/ha (Lolium perenne (LOLPE)): 80%
ALOMY % phytotoxicity [4, 8]: 58%
ALOMY % phytotoxicity [4, 9]: 63%
ALOMY % phytotoxicity [4, 10]: 93%
ALOMY % phytotoxicity [4, 11]: 98%
AVEFA % phytotoxicity (Avena fatua (AVEFA) [5]; [8]): 58%
AVEFA % phytotoxicity (Avena fatua (AVEFA) [5]; [9]): 23%
AVEFA % phytotoxicity (Avena fatua (AVEFA) [5]; [10]): 83%
AVEFA % phytotoxicity (Avena fatua (AVEFA) [5]; [11]): 68%
LOLMU % phytotoxicity [6, 8]: 93%
LOLMU % phytotoxicity [6, 9]: 68%
LOLMU % phytotoxicity [6, 10]: 95%
LOLMU % phytotoxicity [6, 11]: 99%
POAAN % phytotoxicity (Poa annua (POAAN); [8]): 0%
POAAN % phytotoxicity (Poa annua (POAAN); [9]): 13%
POAAN % phytotoxicity (Poa annua (POAAN); [10]): 18%
POAAN % phytotoxicity (Poa annua (POAAN); [11]): 5%
SETVI % phytotoxicity (Setaria viridis (SETVI); [8]): 80%
SETVI % phytotoxicity (Setaria viridis (SETVI); [9]): 85%
SETVI % phytotoxicity (Setaria viridis (SETVI); [10]): 98%
SETVI % phytotoxicity (Setaria viridis (SETVI); [11]): 95%
Spring Barley “Harrington” phytotoxicity (%) [7, 8]: 73%
Spring Barley “Harrington” phytotoxicity (%) [7, 9]: 3%
Spring Barley “Harrington” phytotoxicity (%) [7, 10]: 88%
Spring Barley “Harrington” phytotoxicity (%) [7, 11]: 18%
Spring Wheat “Teal” phytotoxicity (%) (Spring Wheat “Teal”; [8]): 43%
Spring Wheat “Teal” phytotoxicity (%) (Spring Wheat “Teal”; [9]): 0%
Spring Wheat “Teal” phytotoxicity (%) (Spring Wheat “Teal”; [10]): 80%
Spring Wheat “Teal” phytotoxicity (%) (Spring Wheat “Teal”; [11]): 0%
Winter Barley “Suzuka” phytotoxicity (%) (Winter Barley “Suzuka”; [8]): 33%
Winter Barley “Suzuka” phytotoxicity (%) (Winter Barley “Suzuka”; [9]): 0%
Winter Barley “Suzuka” phytotoxicity (%) (Winter Barley “Suzuka”; [10]): 65%
Winter Barley “Suzuka” phytotoxicity (%) (Winter Barley “Suzuka”; [11]): 0%
Winter Wheat “Hereward” phytotoxicity (%) (Winter Wheat “Hereward”; [8]): 40%
Winter Wheat “Hereward” phytotoxicity (%) (Winter Wheat “Hereward”; [9]): 0%
Winter Wheat “Hereward” phytotoxicity (%) (Winter Wheat “Hereward”; [10]): 53%
Winter Wheat “Hereward” phytotoxicity (%) (Winter Wheat “Hereward”; [11]): 0%
